# From ChEMBL document CHEMBL5291721, “A preclinical secondary pharmacology resource illuminates target-adverse drug reaction associations of marketed drugs” (Nat Commun, 2023)
# What was measured:
# Adenosine receptor A1 = target: T1, Adenosine receptor A1 (Homo sapiens, UniProt P30542)
# T1 sequence (P30542 whole entry): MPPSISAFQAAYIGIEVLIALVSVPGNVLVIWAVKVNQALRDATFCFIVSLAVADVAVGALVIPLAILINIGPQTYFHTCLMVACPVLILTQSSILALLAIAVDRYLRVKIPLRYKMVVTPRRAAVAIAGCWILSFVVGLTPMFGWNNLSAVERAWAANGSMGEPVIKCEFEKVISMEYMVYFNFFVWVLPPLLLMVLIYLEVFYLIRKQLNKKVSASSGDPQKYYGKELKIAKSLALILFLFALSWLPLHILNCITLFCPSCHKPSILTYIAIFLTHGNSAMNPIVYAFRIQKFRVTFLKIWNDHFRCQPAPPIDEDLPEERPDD
# Adenosine receptor A3 = target: T2, Adenosine receptor A3 (Homo sapiens, UniProt P0DMS8)
# T2 sequence (P0DMS8 whole entry): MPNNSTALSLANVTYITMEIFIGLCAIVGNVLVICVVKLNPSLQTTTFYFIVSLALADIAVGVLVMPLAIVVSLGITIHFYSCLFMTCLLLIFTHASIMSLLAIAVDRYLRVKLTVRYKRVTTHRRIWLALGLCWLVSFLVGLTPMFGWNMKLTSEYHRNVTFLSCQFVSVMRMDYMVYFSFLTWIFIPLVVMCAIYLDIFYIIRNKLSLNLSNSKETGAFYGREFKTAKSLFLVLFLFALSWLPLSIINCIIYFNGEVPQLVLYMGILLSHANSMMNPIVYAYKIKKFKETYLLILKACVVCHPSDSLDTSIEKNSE
# [1] = target: T3, Alpha-1A adrenergic receptor (Homo sapiens, UniProt P35348); assay type: functional, cell-based
# T3 sequence (P35348 whole entry): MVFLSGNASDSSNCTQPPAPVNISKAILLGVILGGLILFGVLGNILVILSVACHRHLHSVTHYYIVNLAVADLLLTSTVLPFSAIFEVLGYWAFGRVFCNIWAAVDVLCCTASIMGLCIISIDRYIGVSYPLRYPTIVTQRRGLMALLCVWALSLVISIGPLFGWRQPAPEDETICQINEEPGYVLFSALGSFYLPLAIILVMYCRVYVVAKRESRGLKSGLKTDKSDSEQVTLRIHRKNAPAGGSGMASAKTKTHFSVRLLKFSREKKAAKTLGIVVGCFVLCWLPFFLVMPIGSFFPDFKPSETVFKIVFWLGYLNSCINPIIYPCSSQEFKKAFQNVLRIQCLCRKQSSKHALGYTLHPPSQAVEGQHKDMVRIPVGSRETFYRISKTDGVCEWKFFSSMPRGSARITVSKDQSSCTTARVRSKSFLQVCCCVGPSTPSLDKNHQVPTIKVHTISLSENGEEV
# [2] = target: T4, Alpha-2A adrenergic receptor (Homo sapiens, UniProt P08913); assay type: functional, cell-based
# T4 sequence (P08913 whole entry): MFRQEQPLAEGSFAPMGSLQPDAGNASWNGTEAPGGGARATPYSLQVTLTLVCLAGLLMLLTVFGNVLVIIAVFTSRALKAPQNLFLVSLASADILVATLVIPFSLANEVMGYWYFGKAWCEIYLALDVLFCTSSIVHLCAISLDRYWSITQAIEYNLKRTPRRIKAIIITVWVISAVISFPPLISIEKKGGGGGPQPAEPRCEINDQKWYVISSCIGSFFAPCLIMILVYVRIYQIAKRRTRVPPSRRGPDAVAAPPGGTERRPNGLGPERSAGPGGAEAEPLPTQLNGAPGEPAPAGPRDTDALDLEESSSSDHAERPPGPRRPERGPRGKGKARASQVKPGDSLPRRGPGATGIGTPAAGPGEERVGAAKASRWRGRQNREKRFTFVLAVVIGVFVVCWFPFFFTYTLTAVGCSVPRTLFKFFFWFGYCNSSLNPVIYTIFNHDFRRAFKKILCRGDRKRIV
# [3] = target: Voltage-gated inwardly rectifying potassium channel KCNH2 (Homo sapiens, UniProt Q12809); assay type: functional; conditions: read-out: AC50
# Sequence of Voltage-gated inwardly rectifying potassium channel KCNH2 (Q12809 whole entry): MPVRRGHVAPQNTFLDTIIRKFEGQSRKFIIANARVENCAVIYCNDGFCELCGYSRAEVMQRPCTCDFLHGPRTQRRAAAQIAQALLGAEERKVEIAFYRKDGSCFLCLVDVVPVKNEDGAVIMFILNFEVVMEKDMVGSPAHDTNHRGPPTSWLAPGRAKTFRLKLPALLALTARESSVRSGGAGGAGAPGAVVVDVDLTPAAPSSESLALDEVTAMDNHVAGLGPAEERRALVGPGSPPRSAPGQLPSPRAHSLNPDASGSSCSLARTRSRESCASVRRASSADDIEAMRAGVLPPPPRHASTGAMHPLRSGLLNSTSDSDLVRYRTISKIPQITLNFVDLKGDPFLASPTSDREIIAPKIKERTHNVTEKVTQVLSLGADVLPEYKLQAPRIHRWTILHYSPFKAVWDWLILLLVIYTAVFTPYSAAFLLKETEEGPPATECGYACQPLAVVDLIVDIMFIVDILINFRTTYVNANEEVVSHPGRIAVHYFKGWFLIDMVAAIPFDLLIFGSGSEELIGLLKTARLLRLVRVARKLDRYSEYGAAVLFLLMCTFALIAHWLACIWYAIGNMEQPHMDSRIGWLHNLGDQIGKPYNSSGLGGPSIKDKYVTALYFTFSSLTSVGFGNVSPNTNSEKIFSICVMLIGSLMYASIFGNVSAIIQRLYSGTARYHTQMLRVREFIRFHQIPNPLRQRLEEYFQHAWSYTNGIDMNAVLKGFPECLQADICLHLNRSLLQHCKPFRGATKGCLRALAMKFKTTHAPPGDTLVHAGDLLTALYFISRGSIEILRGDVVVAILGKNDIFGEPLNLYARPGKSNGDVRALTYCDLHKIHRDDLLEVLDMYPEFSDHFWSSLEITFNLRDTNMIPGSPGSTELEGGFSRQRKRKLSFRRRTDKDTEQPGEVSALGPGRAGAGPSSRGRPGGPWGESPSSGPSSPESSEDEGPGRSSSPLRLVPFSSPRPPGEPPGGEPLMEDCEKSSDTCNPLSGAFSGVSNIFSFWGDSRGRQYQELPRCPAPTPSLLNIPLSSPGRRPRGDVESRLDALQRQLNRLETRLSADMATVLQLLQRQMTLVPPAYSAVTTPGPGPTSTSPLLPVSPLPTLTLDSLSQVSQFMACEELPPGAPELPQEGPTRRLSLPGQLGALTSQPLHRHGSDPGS
# Melanocortin receptor 3 = Melanocortin receptor 3 (Homo sapiens, UniProt P41968)
# Sequence of Melanocortin receptor 3 (P41968 whole entry): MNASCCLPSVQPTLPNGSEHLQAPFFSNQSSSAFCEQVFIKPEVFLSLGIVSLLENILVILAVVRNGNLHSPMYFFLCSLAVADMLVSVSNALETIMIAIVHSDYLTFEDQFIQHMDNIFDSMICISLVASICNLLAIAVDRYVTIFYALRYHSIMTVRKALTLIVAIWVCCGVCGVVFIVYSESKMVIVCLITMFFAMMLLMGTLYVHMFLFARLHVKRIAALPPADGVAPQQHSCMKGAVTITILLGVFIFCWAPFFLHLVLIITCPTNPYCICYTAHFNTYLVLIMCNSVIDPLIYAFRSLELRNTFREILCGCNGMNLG
# [4] = target: T5, Prostaglandin G/H synthase 1 (Rattus norvegicus, UniProt Q63921); assay type: functional
# T5 sequence (Q63921 whole entry): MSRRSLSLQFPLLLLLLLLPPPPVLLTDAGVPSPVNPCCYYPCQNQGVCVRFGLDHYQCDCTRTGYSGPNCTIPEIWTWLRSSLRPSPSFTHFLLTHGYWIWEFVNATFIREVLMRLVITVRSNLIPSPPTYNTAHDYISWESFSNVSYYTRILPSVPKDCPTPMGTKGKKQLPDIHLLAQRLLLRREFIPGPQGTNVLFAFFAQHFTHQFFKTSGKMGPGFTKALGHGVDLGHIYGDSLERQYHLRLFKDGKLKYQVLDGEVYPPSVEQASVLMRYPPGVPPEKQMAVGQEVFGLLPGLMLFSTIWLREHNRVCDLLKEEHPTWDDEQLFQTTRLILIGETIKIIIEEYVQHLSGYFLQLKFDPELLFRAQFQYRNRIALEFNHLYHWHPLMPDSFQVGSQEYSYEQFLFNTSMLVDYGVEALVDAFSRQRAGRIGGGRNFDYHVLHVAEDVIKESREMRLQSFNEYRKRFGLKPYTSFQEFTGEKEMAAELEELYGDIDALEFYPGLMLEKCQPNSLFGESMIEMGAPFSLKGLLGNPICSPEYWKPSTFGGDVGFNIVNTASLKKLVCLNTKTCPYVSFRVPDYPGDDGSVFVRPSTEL
# Histamine H1 receptor = Histamine H1 receptor (Homo sapiens, UniProt P35367)
# Sequence of Histamine H1 receptor (P35367 whole entry): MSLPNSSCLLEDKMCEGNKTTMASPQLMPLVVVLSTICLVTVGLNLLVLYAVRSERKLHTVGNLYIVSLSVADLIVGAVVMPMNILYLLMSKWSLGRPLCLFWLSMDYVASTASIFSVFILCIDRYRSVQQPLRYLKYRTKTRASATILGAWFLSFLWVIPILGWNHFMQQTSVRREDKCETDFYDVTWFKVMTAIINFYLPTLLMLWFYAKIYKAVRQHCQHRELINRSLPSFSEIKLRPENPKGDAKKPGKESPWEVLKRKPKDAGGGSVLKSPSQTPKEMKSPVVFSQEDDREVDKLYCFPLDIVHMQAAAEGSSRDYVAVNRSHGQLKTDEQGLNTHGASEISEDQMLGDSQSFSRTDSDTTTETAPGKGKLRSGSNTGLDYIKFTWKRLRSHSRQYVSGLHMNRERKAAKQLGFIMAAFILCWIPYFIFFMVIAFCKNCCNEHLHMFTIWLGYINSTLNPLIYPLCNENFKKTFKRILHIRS
# Further: assay procedure not described here.
SMILES,AC50 (Adenosine receptor A1) [µM],AC50 (Adenosine receptor A3) [µM],AC50 [1] [µM],AC50 [2] [µM],AC50 [3] [µM],AC50 (Melanocortin receptor 3) [µM],AC50 [4] [µM],AC50 (Histamine H1 receptor) [µM]
CCOC(=O)[C@H](CCc1ccccc1)N[C@@H](C)C(=O)N1Cc2ccccc2C[C@H]1C(=O)O,> 30,> 30,> 30,> 10,> 30,> 30,> 30,–
Cc1c(C)c2c(c(C)c1O)CCC(C)(COc1ccc(CC3SC(=O)NC3=O)cc1)O2 (centres undefined) [TROGLITAZONE],> 30,3.29,> 30,> 30,> 30,> 30,22.9,–
CC(=O)Oc1ccccc1C(=O)O [ASPIRIN],> 30,> 30,> 30,> 10,> 30,> 30,–,–
CN(C)CCCC1(c2ccc(F)cc2)OCc2cc(C#N)ccc21 (centres undefined) [CITALOPRAM],> 30,> 30,–,> 10,–,> 30,> 30,–
CN(C)CCC=C1c2ccccc2CCc2ccccc21 [AMITRIPTYLINE],> 30,> 30,> 30,> 10,–,23,> 30,–
CN(C)CCN(Cc1ccccc1)c1ccccn1 [TRIPELENNAMINE],> 10,> 30,–,> 10,2.8,> 10,> 10,0.08
Cc1ccc(C(C)C)c(O)c1 [THYMOL],–,> 30,–,–,> 30,–,120,–
Cc1cccc(C)c1NC(=O)c1cc(S(N)(=O)=O)c(Cl)cc1O [XIPAMIDE],–,> 30,–,–,> 30,–,–,–
NCC1(CC(=O)O)CCCCC1 [GABAPENTIN],> 30,> 30,> 30,> 30,> 30,> 30,> 30,–
NC(=O)C1(N2CCCCC2)CCN(CCCC(=O)c2ccc(F)cc2)CC1 [PIPAMPERONE],–,> 30,–,–,1.9,–,–,–
O=C1[C@@H]2[C@H]3CC[C@H](C3)[C@@H]2C(=O)N1C[C@@H]1CCCC[C@H]1CN1CCN(c2nsc3ccccc23)CC1 [LURASIDONE],> 30,6.36,–,–,–,> 30,> 30,8.7
CC(C)Nc1cccnc1N1CCN(C(=O)c2cc3cc(NS(C)(=O)=O)ccc3[nH]2)CC1 [DELAVIRDINE],–,21.4,–,–,16,–,–,–
